Experimental data taken from patent US20240018166A1, “SULFONYL UREA NLRP3 INFLAMMASOME INHIBITORS” (Venatorx Pharmaceuticals, Inc., priority 2020, published 2024).
Values belong to the molecule of their own block, whether it stands above or below them.

What was measured:
IL-1β = IL-1β inhibition assay (ELISA/HTRF of culture supernatants); type: cell-based; conditions: Homo sapiens, PMA-differentiated THP-1 cells, tested 10 μM to 0.003 μM
Procedure: Human monocyte-like THP-1 cells were grown in RPMI media supplemented with 10% FBS (growth media) at 37° C., 5% CO2. Cell cultures were passaged every three days and maintained at a density of 5×10^5 to 1×10^6 cells per mL.
Compounds were prepared as 10 mM stock solutions in 100% DMSO. […] Each 200× dilution was then diluted 20-fold in growth media (step down dilution) to yield a 10× final assay concentration range. All compounds were tested over a final assay concentration range of 10 μM to 0.003 μM.
The level of IL-10 in supernatants from PMA-differentiated THP-1 cells was determined by ELISA using either the R&D Systems Human IL-1 beta/IL-1F2 Quantikine ELISA or the cisbio HTRF human IL 1 beta kit. Manufacturer's protocols were followed without deviation.
Background values were subtracted and resulting values were converted to percentage of vehicle-treated controls. Data was analyzed via GraphPad Prism 7.0 using a non-linear regression (variable slope (four-parameter)) equation.
Table 2 provides IL-10 ELISA EC50 values for example compounds. A indicates EC50>10 μM; B indicates EC50 between 1 and 10 μM (inclusive); C indicates EC50<1 μM.

[1] = MTT cell viability assay, THP-1 cells; type: cell-based; conditions: human, unstimulated THP-1 cells, read-out: THP-1 Cytotoxicity CC50
Procedure: In order to assess the cytotoxicity of the compounds, an MTT cell viability assay was performed in either unstimulated THP-1 or HepG2 cells as follows. 5×10^4 THP-1 or 5×10^3 HepG2 cells were seeded into each well of a 96-well plate in 90 μL of media. Compounds were added to cells as described for the IL-10 assay and returned to the incubator for an additional 72 hours. Next, 25 μL of MTT solution (5 mg/mL in sterile PBS) was added to each well. Plates were incubated for 3 hours at 37° C., 5% CO2. Next, for THP-1 cells, 100 μl of MTT solubilization solution (40% Dimethylformamide, 2% glacial acetic acid, 16% sodium dodecyl sulfate) was then added to each well and plates were incubated at room temperature in the dark overnight. For HepG2 cells, media was aspirated, 50 μL of DMSO was added and plates were mixed briefly with an orbital plate shaker. Absorbance at 570 nm was measured using a Perkin-Elmer EnVision plate reader.
Absorbance values were converted to percentage of vehicle-treated controls. Data was then analyzed using a non-linear regression (variable slope (four-parameter)) equation in GraphPad Prism 7.0.
Table 2 provides THP-1 cytotoxicity assay CC50 values for example compounds. A indicates CC50>10 μM; B indicates CC50 between 1 and 10 μM (inclusive); C indicates CC50<1 μM. NT, not tested.

SMILES: COc1ccc(B(O)O)cc1S(=O)(=O)NC(=O)Nc1c(C(C)C)cccc1C(C)C [Example 8, (3-(N-((2,6-diisopropylphenyl)carbamoyl)sulfamoyl)-4-methoxyphenyl)boronic acid]
EC50 (IL-1β): > 10 µM | CC50 at 72 h [1]: > 10 µM

SMILES: CC(C)c1cc(B(O)O)ccc1NC(=O)NS(=O)(=O)c1cnn(C(C)C)c1 [Example 19, (3-isopropyl-4-(3-((1-isopropyl-1H-pyrazol-4-yl)sulfonyl)ureido)phenyl)boronic acid]
EC50 (IL-1β): > 10 µM | CC50 at 72 h [1]: > 10 µM

SMILES: COc1ccc(S(=O)(=O)NC(=O)Nc2c3c(cc4c2CCC4)CCC3)cc1B(O)O [Example 43, (5-(N-((1,2,3,5,6,7-hexahydro-s-indacen-4-yl)carbamoyl)sulfamoyl)-2-methoxyphenyl)boronic acid]
EC50 (IL-1β): 1 to 10 µM | CC50 at 72 h [1]: > 10 µM

SMILES: O=C(Nc1c2c(cc3c1CCC3)CCC2)NS(=O)(=O)c1ccc(O)c(CB(O)O)c1 [Example 38, (5-(N-((1,2,3,5,6,7-hexahydro-s-indacen-4-yl)carbamoyl)sulfamoyl)-2-hydroxybenzyl)boronic acid]
EC50 (IL-1β): 1 to 10 µM | CC50 at 72 h [1]: > 10 µM

SMILES: O=C(Nc1c2c(cc3c1CCC3)CCC2)NS(=O)(=O)c1ccc(CB(O)O)c(O)c1 [Example 44, (4-(N-((1,2,3,5,6,7-hexahydro-s-indacen-4-yl)carbamoyl)sulfamoyl)-2-hydroxybenzyl)boronic acid]
EC50 (IL-1β): 1 to 10 µM | CC50 at 72 h [1]: > 10 µM

SMILES: O=C(Nc1c2c(cc3c1CCC3)CCC2)NS(=O)(=O)c1ccc2c(c1)OB(O)CC2 [Example 41, N-((1,2,3,5,6,7-hexahydro-s-indacen-4-yl)carbamoyl)-2-hydroxy-3,4-dihydro-2H-benzo[e][1,2]oxaborinine-7-sulfonamide]
EC50 (IL-1β): 1 to 10 µM | CC50 at 72 h [1]: > 10 µM

SMILES: CC(C)c1cc(B2OC(C)(C)C(C)(C)O2)cc(C(C)C)c1NC(=O)NS(=O)(=O)c1ccn(C(C)C)n1 [Example 30, N-((2,6-diisopropyl-4-(4,4,5,5-tetramethyl-1,3,2-dioxaborolan-2-yl)phenyl)carbamoyl)-1-isopropyl-1H-pyrazole-3-sulfonamide]
EC50 (IL-1β): 1 to 10 µM | CC50 at 72 h [1]: > 10 µM

SMILES: CC(C)c1cc(B(O)O)cc(C(C)C)c1NC(=O)NS(=O)(=O)c1cnn(C(C)C)c1 [Example 24, (3,5-diisopropyl-4-(3-((1-isopropyl-1H-pyrazol-4-yl)sulfonyl)ureido)phenyl)boronic acid]
EC50 (IL-1β): 1 to 10 µM | CC50 at 72 h [1]: > 10 µM

SMILES: CC1(C)OB(O)c2cc(S(=O)(=O)NC(=O)Nc3c4c(cc5c3CCC5)CCC4)ccc21 [Example 47, N-((1,2,3,5,6,7-hexahydro-s-indacen-4-yl)carbamoyl)-1-hydroxy-3,3-dimethyl-1,3-dihydrobenzo[c][1,2]oxaborole-6-sulfonamide]
EC50 (IL-1β): 1 to 10 µM | CC50 at 72 h [1]: > 10 µM

SMILES: COc1ccc(S(=O)(=O)NC(=O)Nc2c3c(cc4c2CCC4)CCC3)cc1CCCB1O[C@@H]2C[C@@H]3C[C@@H](C3(C)C)[C@]2(C)O1 [Example 50, N-((1,2,3,5,6,7-hexahydro-s-indacen-4-yl)carbamoyl)-4-methoxy-3-(3-((3aS,4S,6S,7aR)-3a,5,5-trimethylhexahydro-4,6-methanobenzo[d][1,3,2]dioxaborol-2-yl)propyl)benzenesulfonamide]
EC50 (IL-1β): 1 to 10 µM | CC50 at 72 h [1]: > 10 µM

SMILES: COC(=O)c1ccc(S(=O)(=O)NC(=O)Nc2c3c(cc4c2CCC4)CCC3)cc1B(O)O [Example 35, (5-(N-((1,2,3,5,6,7-hexahydro-s-indacen-4-yl)carbamoyl)sulfamoyl)-2-(methoxycarbonyl)phenyl)boronic acid]
EC50 (IL-1β): > 10 µM | CC50 at 72 h [1]: > 10 µM

SMILES: Cc1ccc(S(=O)(=O)NC(=O)Nc2c(C(C)C)cccc2C(C)C)cc1B1OC(C)(C)C(C)(C)O1 [Example 6, N-((2,6-diisopropylphenyl)carbamoyl)-4-methyl-3-(4,4,5,5-tetramethyl-1,3,2-dioxaborolan-2-yl)benzenesulfonamide]
EC50 (IL-1β): 1 to 10 µM | CC50 at 72 h [1]: > 10 µM

SMILES: O=C(Nc1c2c(cc3c1CCC3)CCC2)NS(=O)(=O)c1ccc2c(c1)B(O)OC2 [Example 17, N-((1,2,3,5,6,7-hexahydro-s-indacen-4-yl)carbamoyl)-1-hydroxy-1,3-dihydrobenzo[c][1,2]oxaborole-6-sulfonamide]
EC50 (IL-1β): 1 to 10 µM | CC50 at 72 h [1]: > 10 µM

SMILES: CC(C)c1cccc(C(C)C)c1NC(=O)NS(=O)(=O)c1ccc(B2O[C@@H]3C[C@@H]4C[C@@H](C4(C)C)[C@]3(C)O2)cc1 [Example 4, N-((2,6-diisopropylphenyl)carbamoyl)-4-((3aS,4S,6S,7aR)-3a,5,5-trimethylhexahydro-4,6-methanobenzo[d][1,3,2]dioxaborol-2-yl)benzenesulfonamide]
EC50 (IL-1β): > 10 µM | CC50 at 72 h [1]: > 10 µM

Continued, in another order:

EC50 (IL-1β): 1 to 10 µM
SMILES: O=C(Nc1c2c(cc3c1CCC3)CCC2)NS(=O)(=O)c1ccc(CCCB(O)O)c(O)c1 [Example 40, (3-(4-(N-((1,2,3,5,6,7-hexahydro-s-indacen-4-yl)carbamoyl)sulfamoyl)-2-hydroxyphenyl)propyl)boronic acid]
CC50 at 72 h [1]: > 10 µM

EC50 (IL-1β): 1 to 10 µM
SMILES: O=C(Nc1c2c(cc3c1CCC3)CCC2)NS(=O)(=O)c1cc(F)cc2c1B(O)OC2 [Example 34, 5-fluoro-N-((1,2,3,5,6,7-hexahydro-s-indacen-4-yl)carbamoyl)-1-hydroxy-1,3-dihydrobenzo[c][1,2]oxaborole-7-sulfonamide]
CC50 at 72 h [1]: > 10 µM

EC50 (IL-1β): < 1 µM
SMILES: O=C(Nc1c2c(cc3c1CCC3)CCC2)NS(=O)(=O)c1ccc2c(c1)COB2O [Example 29, N-((1,2,3,5,6,7-hexahydro-s-indacen-4-yl)carbamoyl)-1-hydroxy-1,3-dihydrobenzo[c][1,2]oxaborole-5-sulfonamide]
CC50 at 72 h [1]: > 10 µM

EC50 (IL-1β): < 1 µM
SMILES: COc1cc(S(=O)(=O)NC(=O)Nc2c3c(cc4c2CCC4)CCC3)ccc1CB1O[C@@H]2C[C@@H]3C[C@@H](C3(C)C)[C@]2(C)O1 [Example 42, N-((1,2,3,5,6,7-hexahydro-s-indacen-4-yl)carbamoyl)-3-methoxy-4-(((3aS,4S,6S,7aR)-3a,5,5-trimethylhexahydro-4,6-methanobenzo[d][1,3,2]dioxaborol-2-yl)methyl)benzenesulfonamide]
CC50 at 72 h [1]: > 10 µM

EC50 (IL-1β): 1 to 10 µM
SMILES: COc1cc(-c2ccc3c(c2NC(=O)NS(=O)(=O)c2ccc4c(c2)COB4O)CCC3)ccn1 [Example 51, 1-hydroxy-N-((5-(2-methoxypyridin-4-yl)-2,3-dihydro-1H-inden-4-yl)carbamoyl)-1,3-dihydrobenzo[c][1,2]oxaborole-5-sulfonamide]
CC50 at 72 h [1]: > 10 µM

EC50 (IL-1β): 1 to 10 µM
SMILES: O=C(Nc1c2c(cc3c1CCC3)CCC2)NS(=O)(=O)c1ccc(O)c(CCCB(O)O)c1 [Example 37, (3-(5-(N-((1,2,3,5,6,7-hexahydro-s-indacen-4-yl)carbamoyl)sulfamoyl)-2-hydroxyphenyl)propyl)boronic acid]
CC50 at 72 h [1]: > 10 µM

EC50 (IL-1β): < 1 µM
SMILES: C[N+]12CC(=O)O[B-]1(c1cccc(S(=O)(=O)NC(=O)Nc3c4c(cc5c3CCC5)CCC4)c1)OC(=O)C2 (stereo not drawn) [Example 26, N-((1,2,3,5,6,7-hexahydro-s-indacen-4-yl)carbamoyl)-3-(4-methyl-2,6-dioxotetrahydro-2H-414,814-[1,3,2]oxazaborolo[2,3-b][1,3,2]oxazaborol-8-yl)benzenesulfonamide]
CC50 at 72 h [1]: > 10 µM

EC50 (IL-1β): < 1 µM
SMILES: C[N+]12CCO[B-]1(c1cccc(S(=O)(=O)NC(=O)Nc3c4c(cc5c3CCC5)CCC4)c1)OCC2 (stereo not drawn) [Example 28, N-((1,2,3,5,6,7-hexahydro-s-indacen-4-yl)carbamoyl)-3-(4-methyltetrahydro-2H-414,814-[1,3,2]oxazaborolo[2,3-b][1,3,2]oxazaborol-8-yl)benzenesulfonamide]
CC50 at 72 h [1]: > 10 µM

EC50 (IL-1β): < 1 µM
SMILES: C[N+]12CC(=O)O[B-]1(c1ccc(S(=O)(=O)NC(=O)Nc3c4c(cc5c3CCC5)CCC4)cc1)OC(=O)C2 (stereo not drawn) [Example 27, N-((1,2,3,5,6,7-hexahydro-s-indacen-4-yl)carbamoyl)-4-(4-methyl-2,6-dioxotetrahydro-2H-414,814-[1,3,2]oxazaborolo[2,3-b][1,3,2]oxazaborol-8-yl)benzenesulfonamide]
CC50 at 72 h [1]: > 10 µM

EC50 (IL-1β): < 1 µM
SMILES: CC1(C)OB(CCCn2ccc(S(=O)(=O)NC(=O)Nc3c4c(cc5c3CCC5)CCC4)n2)OC1(C)C [Example 59, N-((1,2,3,5,6,7-hexahydro-s-indacen-4-yl)carbamoyl)-1-(3-(4,4,5,5-tetramethyl-1,3,2-dioxaborolan-2-yl)propyl)-1H-pyrazole-3-sulfonamide]
CC50 at 72 h [1]: > 10 µM
